Test [1] relates to Trpv4−/− mice, whisker-pad injection of formalin. The experiment in a line: Formalin-evoked trigeminal irritant pain, systemic (i.p.) compound, Trpv4−/− mice. The format is in vivo, mouse. Conditions: 10 mg/kg i.p.; for late-phase pain behavior: vs vehicle / vs A967079 25 mg/kg. The method, then: FIGS. 31A-31D: 16-8 and 16-19 effectively attenuate formalin-evoked trigeminal irritant pain. (FIG. 31A) Time-course of nocifensive behavior in WT mice following whisker-pad injection of 4% formalin. The mice were pre-injected (i.p., 10 mg/kg; 15 min before formalin) with GSK205, 16-8 or 16-19. Note effective reduction of nocifensive behavior in the late “neural” phase by compounds 16-8, 16-19, not by GSK205. (FIG. 31B) Cumulative response binned into 3 phases: acute phase (0-5 min), interphase (5-15 min), and late “neural” phase (15-45 min). […] (FIG. 31C) As in (FIG. 31A), but also including Trpv4^−/− mice. Compounds were applied i.p. 15 min before formalin challenge, at 10 mg/kg except established TRPA1 blocker, A967079 (25 mg/kg). Previously-established attenuated nocifensive behavior in early and late phase in Trpv4^−/− mice was recapped, which was reduced further by TRPA1 blocker, A967079. (FIG. 31D) As in (FIG. 31B), plus inclusion of Trpv4^−/− mice. Robust effects of TRPA1-blocker, A967079, were mimicked equi-potently by 16-8 and 16-19 for early phase, and by 16-8 for late phase, partially by 16-19 for late phase. (FIG. 31A, FIG. 31C) show averaged behavioral metrics per time-point, bars in (FIG. 31B, FIG. 31D) represent mean±SEM; for (D) *p<0.05; #P<0.005, one-way ANOVA; for all panels n=5-8 mice/group.
(§1) Compounds were tested for their effect in reducing pain using an in vivo pain model in mice. For mouse formalin-evoked irritant behavior measurements, mice were well-fed, well-rested, and tested at the same time of day, at the same time-point of their circadian rhythm. They were allowed to acclimate to a plexiglas chamber for at least 30 min before testing, and received 10 μL subcutaneous injection of 4% of formalin (diluted from an aqueous solution of commercial 37% formaldehyde with normal saline (NS)) through a 30-gauge needle into the right whiskerpad, as further detailed in Luccarini et al. (J. Pain, 2006, 7, 908-914). Normal saline was used as control injection. After injection, mice were immediately placed back into the chamber and the rubbing behavior was recorded by a private consumer-type video-camera for a 45 min observation period. The recording time was divided into 9 blocks of 5 min, and a nociceptive score was determined per block by measuring the time that the animals spent rubbing the injected area predominantly with the ipsilateral fore-paw and rarely with hind-paw. This rubbing behavior with fore-paw is evoked by pain, which is distinct from itch behavior. Behavioral analysis was conducted by observers blinded to treatment.
We observed significant residual irritant-pain behavior in all phases of the formalin model in Trpv4^−/− mice, consistent with our previous report^13 (FIG. 31C,D). […] A reference TRPA1-inhibitory compound, A967079, was used at 25 mg/kg body weight as a positive control to inhibit TRPA1, based on a previous report^38. Reduction of pain behavior in Trpv4^−/− mice was striking, more than 50% in the late neural phase. […] We conclude that compound 16-8 also functions as a potent TRPA1-inhibitor in an in-vivo irritant pain model specifically designed to assess the contribution of TRPA1 to trigeminal irritant pain, and at least as potent as an established reference TRPA1-antagonistic compound.

The target of another test is T1, TRPV3 (Mus musculus, UniProt Q8K424).
T1 construct: expressed in transfected cells; host or cells: N2a cells, eGFP co-transfected
The experiment in a line: Ca++ imaging in N2a cells over-expressing TRPV3. Conditions: 5 μM, mouse isoform in N2a cells. The format is cell-based. An excerpt:
(§2) Mean±SEM is shown, ≥100 cells per condition. […] Plot generated from averaged peak ΔCa++ concentration of […] per data-point.

In test [2] the test system is BL6 mice, whisker-pad injection of formalin. The experiment in a line: Formalin-evoked nocifensive behavior, compound pre-injected into the whiskerpad. Conditions: 0.5 mM/10 μL pre-injected into whiskerpad 15 min before formalin. The format is in vivo, mouse. The procedure:
as §1
To investigate the effects of the specific compounds GSK205, 16-8, and 16-19 on formalin-induced nociceptive behavior, mice received a single subcutaneous injection of the compounds into the whiskerpad (10 μL, dissolved in 4% DMSO) 15 min before formalin injection. Control animals received the same volume of NS, 4% DMSO.

For a further test, the target named is T2, TRPV1 (Mus musculus, UniProt Q704Y3).
T2 construct: expressed in transfected cells; host or cells: N2a cells, eGFP co-transfected
T2 sequence (Q704Y3 whole entry): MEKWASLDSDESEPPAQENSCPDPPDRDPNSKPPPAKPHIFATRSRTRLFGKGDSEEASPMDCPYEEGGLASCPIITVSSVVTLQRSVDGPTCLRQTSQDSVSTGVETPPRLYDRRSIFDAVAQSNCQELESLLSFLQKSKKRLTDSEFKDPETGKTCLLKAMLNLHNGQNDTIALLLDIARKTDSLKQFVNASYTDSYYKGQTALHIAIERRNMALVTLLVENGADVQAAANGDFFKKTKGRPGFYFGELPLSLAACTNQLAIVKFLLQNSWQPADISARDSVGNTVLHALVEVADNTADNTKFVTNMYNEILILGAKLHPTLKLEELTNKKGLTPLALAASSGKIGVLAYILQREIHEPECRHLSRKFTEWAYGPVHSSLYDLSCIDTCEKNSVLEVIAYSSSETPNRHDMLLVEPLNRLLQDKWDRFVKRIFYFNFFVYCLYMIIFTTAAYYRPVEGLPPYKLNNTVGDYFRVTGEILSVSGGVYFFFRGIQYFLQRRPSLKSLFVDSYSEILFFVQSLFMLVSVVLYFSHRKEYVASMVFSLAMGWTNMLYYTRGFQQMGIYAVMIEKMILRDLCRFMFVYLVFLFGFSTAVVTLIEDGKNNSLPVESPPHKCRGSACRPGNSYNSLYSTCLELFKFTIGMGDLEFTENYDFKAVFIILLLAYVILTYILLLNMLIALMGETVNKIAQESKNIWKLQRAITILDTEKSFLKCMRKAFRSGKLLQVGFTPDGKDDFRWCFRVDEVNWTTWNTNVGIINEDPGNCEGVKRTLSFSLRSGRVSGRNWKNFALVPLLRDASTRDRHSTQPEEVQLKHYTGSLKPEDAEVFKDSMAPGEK
The experiment in a line: Ca++ imaging in N2a cells over-expressing TRPV1. The format is cell-based. The settings on record: 5 μM, mouse isoform in N2a cells.
Excerpt: as §2

The next test has as its target T3, TRPV4 (rat) (Rattus norvegicus, UniProt Q9ERZ8).
T3 construct: expressed in transfected cells; host or cells: N2a (mouse neuroblastoma) cells
The experiment in a line: Ca++ imaging in N2a cells with directed expression of TRPV4, activation with GSK101. The format is cell-based. Conditions: for IC50: N2a cells, rat TRPV4, 5 nM GSK101, averaged peak ΔCa++, read-out: IC50, inhibition of TRPV4-mediated Ca++ influx; for inhibition of TRPV4-mediated Ca++ influx, first round screening: inhibitor 5 μM, 5 nM GSK101. An excerpt: FIGS. 26A-26B: Assessment of compounds in N2a cells with directed expression of TRPV4. […] The number on each bar corresponds to average peak ΔCa++ concentrations in ≈100 cells. […] Plot generated from averaged peak ΔCa++ concentration of 75 cells per data-point.

A further test deals with T4, TRPA1 (mouse) (Mus musculus, UniProt Q8BLA8).
T4 construct: expressed in transfected cells; host or cells: N2a cells, eGFP co-transfected
T4 sequence (Q8BLA8 whole entry): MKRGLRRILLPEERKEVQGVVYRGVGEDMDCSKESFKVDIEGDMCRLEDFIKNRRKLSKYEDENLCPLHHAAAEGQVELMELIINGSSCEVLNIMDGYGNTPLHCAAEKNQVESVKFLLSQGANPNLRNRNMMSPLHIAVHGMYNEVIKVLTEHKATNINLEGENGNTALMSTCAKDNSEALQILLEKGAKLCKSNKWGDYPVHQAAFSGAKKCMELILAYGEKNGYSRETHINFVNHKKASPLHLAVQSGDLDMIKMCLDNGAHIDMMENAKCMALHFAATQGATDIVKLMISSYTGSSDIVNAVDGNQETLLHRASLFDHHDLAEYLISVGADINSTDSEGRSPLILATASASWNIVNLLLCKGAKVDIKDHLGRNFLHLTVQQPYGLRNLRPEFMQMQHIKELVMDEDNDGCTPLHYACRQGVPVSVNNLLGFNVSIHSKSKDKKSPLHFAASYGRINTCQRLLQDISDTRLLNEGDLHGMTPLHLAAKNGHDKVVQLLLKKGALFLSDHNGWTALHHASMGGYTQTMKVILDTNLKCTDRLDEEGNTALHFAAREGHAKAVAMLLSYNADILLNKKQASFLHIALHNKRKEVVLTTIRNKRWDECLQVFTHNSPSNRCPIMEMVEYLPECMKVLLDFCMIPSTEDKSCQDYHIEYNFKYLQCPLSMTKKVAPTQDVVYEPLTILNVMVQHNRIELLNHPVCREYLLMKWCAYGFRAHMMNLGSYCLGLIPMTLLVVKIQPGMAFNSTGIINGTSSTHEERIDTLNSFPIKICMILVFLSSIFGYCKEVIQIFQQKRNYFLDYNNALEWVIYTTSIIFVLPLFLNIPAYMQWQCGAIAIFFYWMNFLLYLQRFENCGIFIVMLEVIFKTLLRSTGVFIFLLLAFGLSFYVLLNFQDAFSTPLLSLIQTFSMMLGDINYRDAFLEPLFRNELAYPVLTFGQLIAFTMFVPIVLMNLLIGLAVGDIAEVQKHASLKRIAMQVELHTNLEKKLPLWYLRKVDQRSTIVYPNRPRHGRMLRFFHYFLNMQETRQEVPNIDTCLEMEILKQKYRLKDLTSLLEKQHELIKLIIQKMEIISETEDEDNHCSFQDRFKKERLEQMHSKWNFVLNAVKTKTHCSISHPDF
The experiment in a line: Ca++ imaging in N2a cells with directed expression of TRPA1, mustard oil activation. The format is cell-based. The settings on record: mouse TRPA1, 100 μM mustard oil, read-out: IC50, inhibition of TRPA1.
Excerpt: as §2

For the next test, the target named is TRPV4 (Homo sapiens, UniProt Q9HBA0). The experiment in a line: TRPV4-mediated calcium influx in N2a cells with targeted expression of human TRPV4. The format is cell-based. Set-up: expressed in transfected cells; host or cells: N2a cells. The settings on record: 2.5 μM inhibitor, pre-incubation 10 min, 10 nM GSK101.
Sequence of TRPV4 (Q9HBA0 whole entry): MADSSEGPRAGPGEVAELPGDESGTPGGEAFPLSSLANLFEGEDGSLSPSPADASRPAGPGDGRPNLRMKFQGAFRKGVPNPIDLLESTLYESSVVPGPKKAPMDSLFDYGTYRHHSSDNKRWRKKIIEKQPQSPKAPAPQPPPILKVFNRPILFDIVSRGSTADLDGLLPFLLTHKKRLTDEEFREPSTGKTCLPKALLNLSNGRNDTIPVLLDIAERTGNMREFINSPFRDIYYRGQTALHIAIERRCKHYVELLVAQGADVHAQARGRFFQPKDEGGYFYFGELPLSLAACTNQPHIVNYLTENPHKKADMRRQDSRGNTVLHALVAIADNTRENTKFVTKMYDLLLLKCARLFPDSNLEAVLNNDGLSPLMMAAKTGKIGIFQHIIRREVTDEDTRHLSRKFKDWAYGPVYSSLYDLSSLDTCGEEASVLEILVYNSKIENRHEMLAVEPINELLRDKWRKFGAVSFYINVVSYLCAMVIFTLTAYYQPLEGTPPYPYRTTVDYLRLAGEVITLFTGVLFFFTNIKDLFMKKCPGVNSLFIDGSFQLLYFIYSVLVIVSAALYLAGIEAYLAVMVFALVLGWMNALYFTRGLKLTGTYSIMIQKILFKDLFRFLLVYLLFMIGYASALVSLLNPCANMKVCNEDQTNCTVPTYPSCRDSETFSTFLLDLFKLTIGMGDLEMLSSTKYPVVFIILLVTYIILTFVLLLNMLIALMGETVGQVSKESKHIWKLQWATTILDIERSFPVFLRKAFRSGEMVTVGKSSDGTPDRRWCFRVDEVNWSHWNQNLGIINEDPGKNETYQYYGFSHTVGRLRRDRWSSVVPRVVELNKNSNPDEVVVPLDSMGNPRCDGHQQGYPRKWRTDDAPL
A further test concerns the target T5, human TRPA1 (Homo sapiens, UniProt O75762).
T5 construct: expressed in transfected cells; host or cells: N2a cells, co-transfected with eGFP plasmid
The experiment in a line: Ca2+ transient in N2a cells transfected with human TRPA1, AITC activation. The format is cell-based. The settings on record: GSK205: doses below or equaling 25 μM. The method, then: Compounds were tested for their effect on TRPA1. N2a permanent cells were transfected with human TRPA1 cDNA, using a pcDNA3.1 expression plasmid. They were co-transfected with eGFP-expressing plasmid, or, for control, with eGFP plasmid only.
Cells were then pre-exposed to 5 μM of compounds 16-8 and 16-19 for 10 min.

Values joined by “and” are separate entries in the source; they are usually repeats but may differ in a detail not shown here. Equal values may be shown once.

Broadly, the IC50 is the concentration needed to halve the response being measured.

T5 sequence (O75762 whole entry): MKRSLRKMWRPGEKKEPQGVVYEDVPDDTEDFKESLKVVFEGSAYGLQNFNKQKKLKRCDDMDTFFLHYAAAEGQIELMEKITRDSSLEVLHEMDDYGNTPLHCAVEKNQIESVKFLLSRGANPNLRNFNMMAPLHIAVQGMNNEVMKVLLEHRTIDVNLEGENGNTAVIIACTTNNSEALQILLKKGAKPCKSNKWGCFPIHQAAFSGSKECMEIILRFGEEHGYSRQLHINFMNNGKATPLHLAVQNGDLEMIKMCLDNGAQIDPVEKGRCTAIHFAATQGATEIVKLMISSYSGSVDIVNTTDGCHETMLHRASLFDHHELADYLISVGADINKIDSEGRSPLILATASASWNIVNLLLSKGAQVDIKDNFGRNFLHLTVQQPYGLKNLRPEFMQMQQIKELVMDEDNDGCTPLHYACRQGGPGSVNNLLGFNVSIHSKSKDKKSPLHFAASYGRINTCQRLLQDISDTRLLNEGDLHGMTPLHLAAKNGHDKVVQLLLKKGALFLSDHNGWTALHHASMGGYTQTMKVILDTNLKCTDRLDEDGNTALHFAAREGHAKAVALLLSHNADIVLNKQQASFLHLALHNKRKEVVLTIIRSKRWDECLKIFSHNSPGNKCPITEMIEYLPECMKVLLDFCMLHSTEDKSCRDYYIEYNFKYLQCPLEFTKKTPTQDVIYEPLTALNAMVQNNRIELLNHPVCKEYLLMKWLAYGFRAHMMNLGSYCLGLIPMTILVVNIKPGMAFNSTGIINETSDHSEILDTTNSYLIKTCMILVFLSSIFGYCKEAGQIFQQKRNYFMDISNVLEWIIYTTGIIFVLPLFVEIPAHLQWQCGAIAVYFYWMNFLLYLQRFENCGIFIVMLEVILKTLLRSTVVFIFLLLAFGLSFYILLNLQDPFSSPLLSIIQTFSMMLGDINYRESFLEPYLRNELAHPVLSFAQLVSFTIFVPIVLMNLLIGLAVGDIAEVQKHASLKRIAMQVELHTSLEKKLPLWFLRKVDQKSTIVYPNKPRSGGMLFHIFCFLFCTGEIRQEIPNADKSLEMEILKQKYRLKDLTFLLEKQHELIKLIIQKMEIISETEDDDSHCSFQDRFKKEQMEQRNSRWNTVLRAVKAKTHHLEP
T3 sequence (Q9ERZ8 whole entry): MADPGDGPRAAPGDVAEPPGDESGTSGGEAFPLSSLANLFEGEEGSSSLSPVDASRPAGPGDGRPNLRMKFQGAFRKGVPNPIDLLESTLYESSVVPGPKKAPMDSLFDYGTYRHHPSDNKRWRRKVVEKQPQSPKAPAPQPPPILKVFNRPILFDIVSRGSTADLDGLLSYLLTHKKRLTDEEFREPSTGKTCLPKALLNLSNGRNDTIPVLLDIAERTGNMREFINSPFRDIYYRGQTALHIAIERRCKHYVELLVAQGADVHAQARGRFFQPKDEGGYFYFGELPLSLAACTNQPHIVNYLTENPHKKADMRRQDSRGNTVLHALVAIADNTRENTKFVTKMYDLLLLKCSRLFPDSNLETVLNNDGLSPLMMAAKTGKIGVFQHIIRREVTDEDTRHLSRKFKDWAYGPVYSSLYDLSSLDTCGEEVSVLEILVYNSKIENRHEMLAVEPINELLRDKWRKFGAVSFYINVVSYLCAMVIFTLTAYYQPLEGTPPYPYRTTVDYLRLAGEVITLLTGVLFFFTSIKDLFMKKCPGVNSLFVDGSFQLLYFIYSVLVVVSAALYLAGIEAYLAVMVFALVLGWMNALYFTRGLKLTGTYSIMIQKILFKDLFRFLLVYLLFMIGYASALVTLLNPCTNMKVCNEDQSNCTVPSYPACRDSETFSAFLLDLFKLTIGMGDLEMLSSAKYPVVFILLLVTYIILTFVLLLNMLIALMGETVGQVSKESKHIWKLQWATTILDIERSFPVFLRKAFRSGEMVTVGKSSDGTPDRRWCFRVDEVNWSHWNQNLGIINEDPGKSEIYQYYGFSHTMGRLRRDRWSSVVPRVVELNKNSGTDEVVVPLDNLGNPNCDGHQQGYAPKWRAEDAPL

`CCN(CCc1ccc(Nc2nc(-c3ccccc3)cs2)cc1)Cc1ccccc1` [Compound 16-19]: in test [1], the immediate-phase pain behavior entry is on record as “virtually eliminated” and the “late-phase pain behavior” value is reported as “significantly reduced”. Also, the “inhibition of TRPV3” value against TRPV3 is “did not inhibit”. In addition, in test [2], the “nocifensive behavior, in particular second phase” value (shortened to “nocifensive behavior”) is “significant attenuation”. Besides, the “inhibition of TRPV1” value on TRPV1 is listed as “did not inhibit”. At TRPV4 (rat), the half-inhibitory concentration (IC50) was 590 nM and 810 nM; the “inhibition of TRPV4-mediated Ca++ influx, first round screening” value is “virtually eliminated Ca++ influx”. Further, at TRPV4 (rat) (from IC50 values, rat TRPV4 in N2a cells), the “increased potency versus parental compound GSK205” value is ~8 fold. Also, the IC50 at TRPA1 (mouse) is 430 nM and 410 nM. Further, the “inhibition of TRPV4-mediated calcium influx (peak calcium concentration)” value (from here on “inhibition … (peak calcium concentration)”) at TRPV4 is recorded as “did not show enhanced inhibition over 16-8”. At human TRPA1, the “inhibitory activity against human TRPA1” value was “showed inhibitory activity”.
As for `CN(CCc1ccc(Nc2nc(-c3cccnc3)cs2)cc1)Cc1ccccc1` [GSK205], in test [2], the “nocifensive behavior” value is reported as “lack of effect”. For the same compound, the IC50 amounted to 4190 nM on TRPV4 (rat) and 5560 ± 400 nM at TRPA1 (mouse). In addition, on TRPV4, the “inhibition … (peak calcium concentration)” value was “very low potency”. Also, at human TRPA1, the “inhibitory activity against human TRPA1” value is “did not inhibit TRPA1 activity”.
On to `CN(CCc1ccc(Nc2nc(-c3ccccc3)cs2)cc1)Cc1ccccc1` [Compound 16-8], for which, in test [1], the immediate-phase pain behavior result is given as “virtually eliminated” and the “late-phase pain behavior” value is reported as “strikingly reduced”. Further, the “inhibition of TRPV3” value against TRPV3 is given as “did not inhibit”. The “nocifensive behavior” value in test [2] is given as “significant attenuation”. Also, at TRPV1, the “inhibition of TRPV1” value is given as “did not inhibit”. Also, at TRPV4 (rat), the IC50 is 450 nM and the “inhibition of TRPV4-mediated Ca++ influx, first round screening” value is “virtually eliminated Ca++ influx”. For the same compound, the IC50 at TRPA1 (mouse) is 410 nM and 430 nM. Further, at TRPV4, the “inhibition … (peak calcium concentration)” value was “most potent”. For the same compound, the “inhibitory activity against human TRPA1” value against human TRPA1 was “showed inhibitory activity”.
